The test deals with L1210 leukemia ip in BDF1 mice, survival T/C. In words: NCI In Vivo Anticancer Drug Screen. Data for tumor model L1210 Leukemia (intraperitoneal) in B6D2F1 (BDF1) mice. To be noted: endpoint: mean survival time, higher = longer survival. The procedure, abridged: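 Transplantable tumor model; survival measured in treated vs vehicle control mice. Value = treated/control.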
[1] abbreviates: dose: 100.0 mg/kg/injection, schedule: Q04DX003 (ip), vehicle: Klucel (hydroxypropylcellulose) (HPC).
[2] abbreviates: dose: 200.0 mg/kg/injection, schedule: Q04DX003 (ip), vehicle: Klucel (hydroxypropylcellulose) (HPC).
Where [3] appears, read: dose: 400.0 mg/kg/injection, schedule: Q04DX003 (ip), vehicle: Klucel (hydroxypropylcellulose) (HPC).
[4] abbreviates: dose: 100.0 mg/kg/injection, schedule: Q01DX009 (ip), vehicle: Klucel (hydroxypropylcellulose) (HPC).
Setting [5] is: dose: 200.0 mg/kg/injection, schedule: Q01DX009 (ip), vehicle: Klucel (hydroxypropylcellulose) (HPC).
Setting [6] is: dose: 100.0 mg/kg/injection, schedule: Q04DX003 (ip), vehicle: acetone.
Setting [7] is: dose: 200.0 mg/kg/injection, schedule: Q04DX003 (ip), vehicle: acetone.
Where [8] appears, read: dose: 400.0 mg/kg/injection, schedule: Q04DX003 (ip), vehicle: acetone.

Where “and” joins values, the source holds several entries; their conditions need not be identical. Identical values can stand only once. Inconclusive results and toxic doses are left out.

For the molecule `CCC[CH2][Sn]([Cl])([Cl])[CH2]CCC.c1ccncc1`, the T/C by setting is: (dose: 3.0 mg/kg/injection, schedule: Q01DX009 (ip), vehicle: Klucel (hydroxypropylcellulose) (HPC)) 93 % of control; (dose: 6.0 mg/kg/injection, schedule: Q01DX009 (ip), vehicle: Klucel (hydroxypropylcellulose) (HPC)) 107 % of control; (dose: 12.0 mg/kg/injection, schedule: Q01DX009 (ip), vehicle: Klucel (hydroxypropylcellulose) (HPC)) 92 % of control; (dose: 12.5 mg/kg/injection, schedule: Q01DX009 (ip), vehicle: Klucel (hydroxypropylcellulose) (HPC)) 87 % of control; (dose: 12.5 mg/kg/injection, schedule: Q04DX002 (ip), vehicle: Klucel (hydroxypropylcellulose) (HPC)) 91 % of control; (dose: 25.0 mg/kg/injection, schedule: Q04DX002 (ip), vehicle: Klucel (hydroxypropylcellulose) (HPC)) 106 % of control.

Take `Cc1[nH]c2ccccc2c1C1CCC(=O)C1` (configuration not stated): the T/C runs as follows: (dose: 100.0 mg/kg/injection, schedule: Q01DX001 (ip), vehicle: carboxymethylcellulose (CMC)) 100 % of control; (dose: 200.0 mg/kg/injection, schedule: Q01DX001 (ip), vehicle: carboxymethylcellulose (CMC)) 89 % of control; (dose: 400.0 mg/kg/injection, schedule: Q01DX001 (ip), vehicle: carboxymethylcellulose (CMC)) 93 % of control.

In the case of `COc1ccccc1NC(=O)CC(=O)c1ccc([N+](=O)[O-])cc1`, the T/C was 103 % of control (dose: 100.0 mg/kg/injection, schedule: Q01DX009 (ip), vehicle: saline sonified); 101 % of control under setting [1]; 100 % of control (dose: 200.0 mg/kg/injection, schedule: Q01DX009 (ip), vehicle: saline sonified); 105 % of control under setting [2]; 103 % of control (dose: 400.0 mg/kg/injection, schedule: Q01DX009 (ip), vehicle: saline sonified); 98 % of control under setting [3].

Turning to `NS(=O)(=O)c1c[nH]c(=O)[nH]c1=O`, the T/C is 104 % of control (dose: 100.0 mg/kg/injection, schedule: Q04DX003 (ip), vehicle: saline); 102 % of control (dose: 200.0 mg/kg/injection, schedule: Q04DX003 (ip), vehicle: saline); 102 % of control (dose: 400.0 mg/kg/injection, schedule: Q04DX003 (ip), vehicle: saline).

As to `COC1=C(Br)C(=O)c2ncccc2C1=O`, the T/C by setting is: (dose: 5.0 mg/kg/injection, schedule: Q01DX001 (ip), vehicle: carboxymethylcellulose (CMC)) 104 % of control; (dose: 20.0 mg/kg/injection, schedule: Q01DX001 (ip), vehicle: carboxymethylcellulose (CMC)) 94 % of control.

As to `CS(=O)(=O)Oc1c(Cl)cc(S(=O)(=O)F)cc1Cl`, the T/C under setting [4] is 104 % of control and the T/C under setting [5] is 102 % of control.

`Cn1c2c(c3ccccc31)CC(C(C)(C)C)CC2` (configuration not stated): the T/C was 107 % of control (dose: 50.0 mg/kg/injection, schedule: Q04DX002 (ip), vehicle: saline with Tween-80); 100 % of control (dose: 100.0 mg/kg/injection, schedule: Q04DX002 (ip), vehicle: saline with Tween-80); 97 % of control (dose: 200.0 mg/kg/injection, schedule: Q04DX002 (ip), vehicle: saline with Tween-80).

Take `CC(C)=C(Br)CC[C@@H](C)[C@H]1CC[C@@]2(C)C3=C(CC[C@]12C)[C@@]1(C)CC[C@H](O)C(C)(C)[C@@H]1CC3`: the T/C (dose: 62.0 mg/kg/injection, schedule: Q01DX Z (sc), vehicle: steriod suspending solution) was 102 % of control; the T/C (dose: 125.0 mg/kg/injection, schedule: Q01DX Z (sc), vehicle: steriod suspending solution) was 95 % of control; the T/C (dose: 250.0 mg/kg/injection, schedule: Q01DX Z (sc), vehicle: steriod suspending solution) was 95 % of control; the T/C (dose: 500.0 mg/kg/injection, schedule: Q01DX Z (sc), vehicle: steriod suspending solution) is 95 % of control.

Consider `CCN(CC)CCCCNc1ccc(NCCCCN(CC)CC)c2c1C(=O)c1ccccc1C2=O`, for which the T/C runs as follows: (dose: 25.0 mg/kg/injection, schedule: Q04DX002 (ip), vehicle: alcohol) 106 % of control; (dose: 50.0 mg/kg/injection, schedule: Q04DX002 (ip), vehicle: alcohol) 95 % of control; (dose: 100.0 mg/kg/injection, schedule: Q04DX002 (ip), vehicle: alcohol) 92 % of control.

For the molecule `COc1ccccc1CNc1ncnc2nc[nH]c12`, the T/C runs as follows: under setting [6], 97 % of control; under setting [7], 94 % of control; under setting [8], 107 % of control.

Take `CN(N=O)C(=O)NCCNC(=O)N(C)N=O`: the T/C (dose: 150.0 mg/kg/injection, schedule: Q01DX Z (ip), vehicle: carboxymethylcellulose (CMC)) is 108 % of control.

Consider `CSCc1cccc(CO)c1`, for which the T/C (dose: 100.0 mg/kg/injection, schedule: Q01DX009 (ip), vehicle: acetone) was 101 % of control; the T/C under setting [6] is 98 % of control; the T/C (dose: 200.0 mg/kg/injection, schedule: Q01DX009 (ip), vehicle: acetone) is 105 % of control; the T/C under setting [7] is 106 % of control; the T/C (dose: 400.0 mg/kg/injection, schedule: Q01DX009 (ip), vehicle: acetone) is 97 % of control; the T/C under setting [8] was 109 % of control.

As to `O=C(/C=C\c1ccc(C(=O)Nc2ccc(C3=NCCCN3)cc2)cc1)Nc1ccc(C2=NCCCN2)cc1`, the T/C is, setting by setting: (dose: 0.25 mg/kg/injection, schedule: Q01DX Z (ip), vehicle: water) 121 % of control; (dose: 0.75 mg/kg/injection, schedule: Q01DX Z (ip), vehicle: water) 183 % of control; (dose: 1.0 mg/kg/injection, schedule: Q01DX Z (ip), vehicle: water) 220 % of control; (dose: 1.25 mg/kg/injection, schedule: Q01DX Z (ip), vehicle: water) 203 % of control; (dose: 10.5 mg/kg/injection, schedule: Q01DX Z (ip), vehicle: water) 123 % of control; (dose: 50.0 mg/kg/injection, schedule: Q01DX Z (oral), vehicle: water) 101 % of control. Moreover, the T/C (dose: 100.0 mg/kg/injection, schedule: Q01DX Z (oral), vehicle: water) was 93 % of control and the T/C (dose: 200.0 mg/kg/injection, schedule: Q01DX Z (oral), vehicle: water) is 114 % of control.

For the molecule `O=[N+]([O-])c1ccc(Oc2cc(Cl)c(Cl)cc2Cl)nc1`, the T/C was 101 % of control (dose: 100.0 mg/kg/injection, schedule: Q01DX009 (ip), vehicle: saline with Tween-80); 104 % of control (dose: 100.0 mg/kg/injection, schedule: Q04DX003 (ip), vehicle: saline with Tween-80); 103 % of control (dose: 200.0 mg/kg/injection, schedule: Q01DX009 (ip), vehicle: saline with Tween-80); 102 % of control (dose: 200.0 mg/kg/injection, schedule: Q04DX003 (ip), vehicle: saline with Tween-80); 100 % of control (dose: 400.0 mg/kg/injection, schedule: Q01DX009 (ip), vehicle: saline with Tween-80); 106 % of control (dose: 400.0 mg/kg/injection, schedule: Q04DX003 (ip), vehicle: saline with Tween-80).

With `COC1(OC)C2(Cl)C3C4C5(OC(C)=O)C(=O)C3(OC(C)=O)C3C5C(Cl)(C41Cl)C32Cl` (configuration not stated), the T/C (dose: 100.0 mg/kg/injection, schedule: Q01DX001 (ip), vehicle: saline) was 100 % of control; the T/C (dose: 200.0 mg/kg/injection, schedule: Q01DX001 (ip), vehicle: saline) was 96 % of control; the T/C (dose: 400.0 mg/kg/injection, schedule: Q01DX001 (ip), vehicle: saline) is 96 % of control.

As for `CCOC(=O)c1ccc(C(=O)O)[n+]([O-])c1`, the T/C is 100 % of control under setting [4]; 92 % of control under setting [1]; 95 % of control under setting [5]; 100 % of control under setting [2]; 96 % of control under setting [3].

As to `CN=C(N/N=C(C)\C=N\NC(=NC)N(C)C)N(C)C`, the T/C by setting is: (dose: 15.0 mg/kg/injection, schedule: Q01DX Z (ip), vehicle: saline) 90 % of control; (dose: 30.0 mg/kg/injection, schedule: Q01DX Z (ip), vehicle: saline) 106 % of control; (dose: 60.0 mg/kg/injection, schedule: Q01DX Z (ip), vehicle: saline) 95 % of control and 98 % of control; (dose: 120.0 mg/kg/injection, schedule: Q01DX Z (ip), vehicle: saline) 97 % of control and 101 % of control; (dose: 120.0 mg/kg/injection, schedule: Q01DX Z (oral), vehicle: saline) 96 % of control; (dose: 240.0 mg/kg/injection, schedule: Q01DX Z (ip), vehicle: saline) 95 % of control. Besides, the T/C runs as follows: (dose: 240.0 mg/kg/injection, schedule: Q01DX Z (oral), vehicle: saline) 91 % of control; (dose: 960.0 mg/kg/injection, schedule: Q01DX Z (oral), vehicle: saline) 94 % of control.

The values are drawn from PubChem BioAssay AID248 (DTP/NCI, 2004).
